Assays:
[1] = In vivo caries evaluation, albino hamster; conditions: Table I, 56 days
From the text: (§1) Standard laboratory techniques were used to complie the data presented. In each case the aldehyde was incorporated into each specimen's food in a one percent, by weight, quantity, over a period of several weeks. In all cases, caries reduction was noted.
(§2) The aldehydes tested in vivo were pyruvaldehyde, d,1-glyceraldehyde, crystalline dimer, glycolaldehyde, octanaldehyde, nonanaldehyde, decanaldehyde, undecylenic aldehyde, and lauric aldehyde. The polyaldehydes tested were dialdehyde starch, dialdehyde starch 50 percent oxidized, dialdehyde starch 90 percent oxidized, and dialdehyde galactomannan gum.
(§3) ^(a) Agents were incorporated in the diet at a 1 percent level.

[2] = test system: Lactobacillus casei ATCC 4646; assay: Acid production inhibition by aldehydes in product vehicles, broth-tube technique; assay type: cell-based; conditions: 1 to 5 percent aldehyde
[3] = test system: Mixed human oral microorganisms; assay: as above; assay type: cell-based; conditions: 1 to 5 percent aldehyde
[4] = In vivo caries evaluation, laboratory animals (summary); conditions: one percent level in diet
From the text: as §1, §2

[5] = test system: oral microorganisms; assay: Acid production inhibition in vitro (summary); assay type: cell-based; conditions: in words, summary of tables
Experimental: Other in vitro evaluations utilized a broth tube analysis of representative anticaries aldehydes incorporated in the vehicles of this invention against cultures of acid producing microorganisms normally present in the mouth. Standard laboratory procedures were utilized throughout to evaluate the acid production inhibition and growth inhibition over the incubation time of up to 24 hours.

[6] = test system: Lactobacillus casei; assay: Acid production inhibition, broth-tube technique; conditions: single agent
From the text: (§6) The data was compiled through well-known broth tube analysis techniques.
(a)Measured by broth-tube technique.

[7] = test system: Mixed Oral Microorganisms; assay: Acid production inhibition, broth-tube technique; conditions: single agent
From the text: as §6
(a)Measured by broth-tube technique.

[8] = test system: Streptococcus spp. FA-1; assay: Growth inhibition of oral microorganisms in vitro, pour plates; assay type: cell-based; conditions: Table IX
Experimental: (§4) (a)Determined on freshly grown pure cultures. Pour plates were incubated

[9] = test system: L. casei; assay: as above; assay type: cell-based, Lactobacillus casei; conditions: Table IX
Experimental: as §4

[10] = test system: Lactobacillus casei and Streptococcus sp. FA-1; assay: Acid-production inhibition by broth-tube assay, 0.1 percent of compound; assay type: cell-based; conditions: Table X; 0.1 percent of compound; read-out: Activity, Acid-Production Inhibition%
Experimental: ^(a) Activity was measured by broth-tube assay to determine percent
(§5) acid-production inhibition obtained by Lactobacillus casei and
Streptococcus sp. FA-1 in the presence of 0.1 percent of compound.
^(a) Activity was measured by broth-tube assay to determine percent o
as §5
Streptococcus sp. FA-1 in the presence of 0.1% of compound. Symbols

[11] = In vivo caries evaluation, Osborne-Mendel strain 2 rat; set-up: species or system rat (Osborne-Mendel strain 2); conditions: Table I; 90 days; Student's test, 95 percent confidence limit
From the text: as §1, §2, §3

[12] = Student's test, 95 percent confidence limit
[13] = in compressed candy tablet, 2 h incubation
[14] = in compressed candy tablet, 5 h incubation
[15] = in compressed candy tablet, 24 h incubation
[16] = in dextrose syrup, 2 h incubation
[17] = in dextrose syrup, 5 h incubation
[18] = in dextrose syrup, 24 h incubation
[19] = in sucrose syrup, 2 h incubation
[20] = in sucrose syrup, 5 h incubation
[21] = in sucrose syrup, 24 h incubation
[22] = in tooth powder (aqueous extract), 2 h incubation
[23] = in tooth powder (aqueous extract), 5 h incubation
[24] = in tooth powder (aqueous extract), 24 h incubation
[25] = in toothpaste (aqueous extract), 2 h incubation
[26] = in toothpaste (aqueous extract), 5 h incubation
[27] = in toothpaste (aqueous extract), 24 h incubation
[28] = pour plates incubated 48 - 72 hours

O=C[C@H](O)CO (racemic) [d,1-Glyceraldehyde]
Caries Score, Mean Incidence ([1]; 1 percent in diet, L-2000 control 27.5): 8.0
Caries Score, Mean Extent ([1]; 1 percent in diet, L-2000 control 80.9): 21.8
Caries Extent Reduction, statistical evaluation [1, 12]: Significant
Caries Incidence Reduction, statistical evaluation [1, 12]: Significant
Acid Production Inhibition [2, 13]: 0 Per Cent
Acid Production Inhibition [2, 14]: 0 Per Cent
Acid Production Inhibition [2, 15]: 73 Per Cent
Acid Production Inhibition [2, 16]: 57 Per Cent
Acid Production Inhibition [2, 17]: 33 Per Cent
Acid Production Inhibition [2, 18]: 89 Per Cent
Acid Production Inhibition [2, 19]: 0 Per cent
Acid Production Inhibition [2, 20]: 30 Per cent
Acid Production Inhibition [2, 21]: 79 Per cent
Acid Production Inhibition [2, 22]: 0 Per cent
Acid Production Inhibition [2, 23]: 0 Per cent
Acid Production Inhibition [2, 24]: 84 Per cent
Acid Production Inhibition [2, 25]: 0 Per cent
Acid Production Inhibition [2, 26]: 0 Per cent
Acid Production Inhibition [2, 27]: 0 Per cent
Acid Production Inhibition [3, 13]: 0 Per Cent
Acid Production Inhibition [3, 14]: 91 Per Cent
Acid Production Inhibition [3, 15]: 87 Per Cent
Acid Production Inhibition [3, 16]: 8 Per Cent
Acid Production Inhibition [3, 17]: 90 Per Cent
Acid Production Inhibition [3, 18]: 77 Per Cent
Acid Production Inhibition ([3]; in mouthwash, 2 h incubation): 0 Per cent
Acid Production Inhibition ([3]; in mouthwash, 5 h incubation): 91 Per cent
Acid Production Inhibition ([3]; in mouthwash, 24 h incubation): 39 Per cent
Acid Production Inhibition [3, 19]: 72 Per cent
Acid Production Inhibition [3, 20]: 93 Per cent
Acid Production Inhibition [3, 21]: 16 Per cent
Acid Production Inhibition [3, 22]: 0 Per cent
Acid Production Inhibition [3, 23]: 48 Per cent
Acid Production Inhibition [3, 24]: 18 Per cent
Acid Production Inhibition [3, 25]: 0 Per cent
Acid Production Inhibition [3, 26]: 0 Per cent
Acid Production Inhibition [3, 27]: 0 Per cent
Anticaries effect in laboratory animals [4]: significant anticaries effects
Acid Production Inhibition [5]: excellent acid production inhibition
Acid Production Inhibition ([6]; 0.02 percent): 11%
Acid Production Inhibition ([6]; 0.03 percent): 17%
Acid Production Inhibition ([6]; 0.04 percent): 22%
Acid Production Inhibition ([7]; 0.03 percent): 7%
Acid Production Inhibition ([7]; 0.04 percent): 12%
Acid Production Inhibition ([7]; 0.05 percent): 19%
Acid Production Inhibition ([7]; 0.06 percent): 30%
Acid Production Inhibition ([7]; 0.07 percent): 40%

CCCCCCCCCC=O [Decanaldehyde]
Bacterial Population, Experimental ([8]; control 2 × 10^8 to 5 × 10^8): 0
Inhibition (growth) [8, 28]: 100%
Bacterial Population, Experimental ([9]; control 8 × 10^8 to 1 × 10^9): 4 × 10^2
Inhibition (growth) [9, 28]: > 99.99%
inhibition at 0.1 % [10]: 99 to 100%
Acid Production Inhibition [2, 13]: 0 Per Cent
Acid Production Inhibition [2, 14]: 67 Per Cent
Acid Production Inhibition [2, 15]: 97 Per Cent
Acid Production Inhibition [2, 16]: 67 Per Cent
Acid Production Inhibition [2, 17]: 77 Per Cent
Acid Production Inhibition [2, 18]: 96 Per Cent
Acid Production Inhibition [2, 19]: 0 Per cent
Acid Production Inhibition [2, 20]: 95 Per cent
Acid Production Inhibition [2, 21]: 99 Per cent
Acid Production Inhibition [2, 25]: 80 Per cent
Acid Production Inhibition [2, 26]: 80 Per cent
Acid Production Inhibition [2, 27]: 83 Per cent
Acid Production Inhibition [3, 13]: 100 Per Cent
Acid Production Inhibition [3, 14]: 100 Per Cent
Acid Production Inhibition [3, 15]: 19 Per Cent
Acid Production Inhibition [3, 16]: 0 Per Cent
Acid Production Inhibition [3, 17]: 95 Per Cent
Acid Production Inhibition [3, 18]: 91 Per Cent
Acid Production Inhibition [3, 19]: 78 Per cent
Acid Production Inhibition [3, 20]: 94 Per cent
Acid Production Inhibition [3, 21]: 95 Per cent
Acid Production Inhibition [3, 25]: 0 Per cent
Acid Production Inhibition [3, 26]: 0 Per cent
Acid Production Inhibition [3, 27]: 0 Per cent
Anticaries effect in laboratory animals [4]: significant anticaries activity

O=CCO [Glycolaldehyde]
Caries Extent Reduction, statistical evaluation [11]: Significant
Acid Production Inhibition [2, 13]: 0 Per Cent
Acid Production Inhibition [2, 14]: 0 Per Cent
Acid Production Inhibition [2, 15]: 64 Per Cent
Acid Production Inhibition [2, 16]: 33 Per Cent
Acid Production Inhibition [2, 17]: 3 Per Cent
Acid Production Inhibition [2, 18]: 85 Per Cent
Acid Production Inhibition [2, 19]: 0 Per cent
Acid Production Inhibition [2, 20]: 0 Per cent
Acid Production Inhibition [2, 21]: 86 Per cent
Acid Production Inhibition [2, 22]: 0 Per cent
Acid Production Inhibition [2, 23]: 0 Per cent
Acid Production Inhibition [2, 24]: 73 Per cent
Acid Production Inhibition [2, 25]: 0 Per cent
Acid Production Inhibition [2, 26]: 0 Per cent
Acid Production Inhibition [2, 27]: 0 Per cent
Acid Production Inhibition [3, 13]: 0 Per Cent
Acid Production Inhibition [3, 14]: 84 Per Cent
Acid Production Inhibition [3, 15]: 72 Per Cent
Acid Production Inhibition [3, 16]: 15 Per Cent
Acid Production Inhibition [3, 17]: 87 Per Cent
Acid Production Inhibition [3, 18]: 87 Per Cent
Acid Production Inhibition ([3]; in mouthwash, 2 h incubation): 0 Per cent
Acid Production Inhibition ([3]; in mouthwash, 5 h incubation): 87 Per cent
Acid Production Inhibition ([3]; in mouthwash, 24 h incubation): 80 Per cent
Acid Production Inhibition [3, 19]: 44 Per cent
Acid Production Inhibition [3, 20]: 90 Per cent
Acid Production Inhibition [3, 21]: 85 Per cent
Acid Production Inhibition [3, 22]: 0 Per cent
Acid Production Inhibition [3, 23]: 82 Per cent
Acid Production Inhibition [3, 24]: 77 Per cent
Acid Production Inhibition [3, 25]: 0 Per cent
Acid Production Inhibition [3, 26]: 0 Per cent
Acid Production Inhibition [3, 27]: 0 Per cent
Anticaries effect in laboratory animals [4]: significant anticaries effects
Acid Production Inhibition [5]: excellent acid production inhibition
Acid Production Inhibition ([6]; 0.02 percent): 18%
Acid Production Inhibition ([6]; 0.025 percent): 23%
Acid Production Inhibition ([6]; 0.03 percent): 27%

From patent US4048299A, “Anticaries confectionaries and oral health products” (William Wrigley, Jr. Co., priority 1970, dated 1977)
